Results on 26 molecules are retold here after ChEMBL document CHEMBL5390249, “Analysis of structure-activity relationship of indol-3-yl-N-phenylcarbamic amides as potent STING inhibitors” (Bioorg Med Chem, 2023).

Calls of active or inactive are those of the source. The calls are words filed in the database; no cut-off is given here.

One series deals with Detroit 551. In words: Cytotoxicity against human Detroit 551 cells assessed as reduction in cell viability by MTS assay. Type of series: toxicity, cell-based. On the technique in general: Formazan colour is commonly taken as a measure of viable cells.
Take `O=C(Nc1ccc(Cl)cc1)Nc1c[nH]c2ccccc12`: the Activity entry is “Non-Toxic”.
The same measure, in the same setting: under `CC(C)c1ccc(NC(=O)Nc2c[nH]c3ccccc23)cc1` stands “Non-Toxic”; under `O=C(Nc1ccc(OC(F)(F)F)cc1)Nc1c[nH]c2ccccc12`, “Non-Toxic”.
For `O=C(Nc1ccc(C(F)(F)F)cc1)Nc1c[nH]c2ccccc12`, the Activity result was “Non-Toxic”.
For `CCc1ccc(NC(=O)Nc2c[nH]c3ccccc23)cc1`, the Activity entry is reported as “Non-Toxic”.
`Cc1ccc(NC(=O)Nc2c[nH]c3ccccc23)cc1Cl`: the Activity result is reported as “Non-Toxic”.

For a further series, the target named is Stimulator of interferon genes protein (Homo sapiens) (UniProt Q86WV6). In words: Inhibition of STING in human THP1-Dual KI-hSTING-R232 cells assessed as cGAMP-induced IRF luciferase expression at 1 uM incubated for 2 hrs by QUANTI-Luc reagent based luciferase reporter assay. The format is cell-based. Background: Reporter assays use an easily measured gene product as a stand-in for the process of interest.
Chain of Stimulator of interferon genes protein (Homo sapiens) (Q86WV6 whole entry): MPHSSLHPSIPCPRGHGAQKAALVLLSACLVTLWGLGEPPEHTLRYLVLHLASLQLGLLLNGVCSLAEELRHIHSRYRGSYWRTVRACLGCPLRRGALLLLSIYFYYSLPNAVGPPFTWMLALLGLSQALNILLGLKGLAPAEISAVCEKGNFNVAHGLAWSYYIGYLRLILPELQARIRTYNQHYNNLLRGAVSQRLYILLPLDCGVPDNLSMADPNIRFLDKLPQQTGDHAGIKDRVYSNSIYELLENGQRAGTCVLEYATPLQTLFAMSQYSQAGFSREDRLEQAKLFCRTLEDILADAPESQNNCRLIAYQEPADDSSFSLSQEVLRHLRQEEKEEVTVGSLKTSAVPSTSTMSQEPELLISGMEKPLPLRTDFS
Regarding `NC(=O)c1ccc(NC(=O)Nc2c[nH]c3ccccc23)cc1`, the inhibition entry is “inactive”.
Take `Cc1cccc(NC(=O)Nc2c[nH]c3ccccc23)c1C`: the inhibition entry is “inactive”.
On to `CCc1ccc(NC(=O)Nc2cn(C)c3ccccc23)cc1`, for which the inhibition entry was “inactive”.
As for `Cc1cccc(NC(=O)Nc2c[nH]c3ccccc23)c1`, the inhibition result was “Active”.
Take `Cc1ccccc1NC(=O)Nc1c[nH]c2ccccc12`: the inhibition result is “inactive”.
With `O=C(Nc1ccc2c(c1)OCCO2)Nc1c[nH]c2ccccc12`, the inhibition entry was “inactive”.
On the same count and under the same terms, under `O=C(Nc1cccc(Cl)c1)Nc1c[nH]c2ccccc12` stands “Active”; under `CN(C(=O)Nc1c[nH]c2ccccc12)c1ccccc1`, “inactive”; under `COc1cccc(NC(=O)Nc2c[nH]c3ccccc23)c1`, “Active”.
Still for that read-out and setting: under `Cn1cc(NC(=O)Nc2ccc(C(N)=O)cc2)c2ccccc21` stands “inactive”.
On to `Cn1cc(NC(=O)Nc2ccc(F)c(Cl)c2)c2ccccc21`, for which the inhibition result is “inactive”.
For `CCc1ccccc1NC(=O)Nc1c[nH]c2ccccc12`, the inhibition entry is “inactive”.
Same read-out and setting: under `CN(C)c1ccc(NC(=O)Nc2c[nH]c3ccccc23)cc1` stands “inactive”.
As to `Cc1ccc(NC(=O)Nc2c[nH]c3ccccc23)c(C)c1`, the inhibition result is “inactive”.
Take `Cn1cc(NC(=O)Nc2ccc(F)c(F)c2)c2ccccc21`: the inhibition entry was “inactive”.
Still for that read-out and setting: under `O=C(Nc1cccc(F)c1)Nc1c[nH]c2ccccc12` stands “Active”; under `COc1ccc(NC(=O)Nc2c[nH]c3ccccc23)cc1`, “inactive”.
On the same count and under the same terms, under `CC(=O)c1ccc(NC(=O)Nc2cn(C)c3ccccc23)cc1` stands “inactive”; under `O=C(Nc1c[nH]c2ccccc12)N1Cc2ccccc2C1`, “inactive”.
For the molecule `Cn1cc(NC(=O)Nc2ccc(OC(F)(F)F)cc2)c2ccccc21`, the inhibition result is “inactive”.
